Counter-ions that a name gives are not always drawn.
Columns and labels:
physchem = conditions: thermodynamic from solid
[1] = Solubility of solid forms in water (visual dissolution); conditions: deionized water added drop-wise with agitation until visual dissolution of the solid; hydrochloride

## C[C@@H]1CCN(C(=O)CC#N)C[C@@H]1N(C)c1ncnc2[nH]ccc12.O=C(O)CC(O)(CC(=O)O)C(=O)O [Tofacitinib citrate, 3-{(3R,4R)-4-methyl-3-[methyl-(7H-pyrrolo[2,3-d]pyrimidin-4-yl)-amino]-piperidin-1-yl}-3-oxo-propionitrile mono-citrate salt, reference compound]
physchem; water
  Solubility: ~2 mg/mL

## C[C@@H]1CCN(C(=O)CC#N)C[C@@H]1N(C)c1ncnc2[nH]ccc12 [Tofacitinib hydrochloride (APO-A), tofacitinib hydrochloride]
physchem; deionized water
  Solubility: 2500 mg/mL

## C[C@@H]1CCN(C(=O)CC#N)C[C@@H]1N(C)c1ncnc2[nH]ccc12 [Tofacitinib hydrochloride (APO-B), tofacitinib hydrochloride]
[1]
  Solubility: 2294 mg/mL

## C[C@@H]1CCN(C(=O)CC#N)C[C@@H]1N(C)c1ncnc2[nH]ccc12 [Tofacitinib hydrochloride (APO-C), tofacitinib hydrochloride]
[1]
  Solubility: 2235 mg/mL

## C[C@@H]1CCN(C(=O)CC#N)C[C@@H]1N(C)c1ncnc2[nH]ccc12 [Tofacitinib hydrochloride (APO-D), tofacitinib hydrochloride]
[1]
  Solubility: 2145 mg/mL

## C[C@@H]1CCN(C(=O)CC#N)C[C@@H]1N(C)c1ncnc2[nH]ccc12 [Tofacitinib hydrochloride (APO-E), tofacitinib hydrochloride]
[1]
  Solubility: 2235 mg/mL

## C[C@@H]1CCN(C(=O)CC#N)C[C@@H]1N(C)c1ncnc2[nH]ccc12 [Tofacitinib hydrochloride (APO-G), tofacitinib hydrochloride]
[1]
  Solubility: 2000 mg/mL

Reference: patent US9260438B2, “Solid forms of tofacitinib salts” (APOTEX INC., priority 2014, dated 2016)
